Source: patent US20210353579A1, “HIGH PENETRATION COMPOSITIONS AND USES THEREOF” (Techfields Pharma Co., Ltd., priority 2006, published 2021)
Read-outs that look alike come from different tables or passages of the source.

Tests used:
rats = test: Antipyretic activity, E. coli suspension as pyrogen; type: in vivo; settings: in °C (unit assumed)
Description: Rats are administered with sterilized E. coli suspension as a pyrogen. Each group of rats are administered with a prodrug compounds or parent compounds at a dosage specified below. The prodrug compounds are administered either orally or transdermally. The parent compounds are administered orally.

human skin tissue = settings: pH 7.4
[1] = test system: Human breast cancer cells (BCAP-37); test: Human breast cancer xenograft in nude mice, topical; settings: day 42, 30 μl of 5% (1.5 mg) topically every 8 hours from day 14; for Tumor size: control 800 ± 100
Description: Human breast cancer cells (BCAP-37, 2-3 mm^3 of tumor tissue was used in each mouse) are subcutaneously xenografted into the front leg of nude mice (BALB, 12 groups, 7 mice each group). […] Then 30 μl of 5% (equal to 1.5 mg of the HPPs) diethylaminoethyl acetylsalicylate.acetylsalicylic acid salt (P-1, in acetone); 1-piperidinepropyl 2[(2,6-dichlorophenyl)amino]benzene acetate.AcOH (P-2, in water), 1-pyrrolidinepropyl 2-(3-benzoylphenyl) propionate.AcOH (P-3, in water), 4-piperidinemethyl 2-(3-phenoxyphenyl)propionate.AcOH (P-4, in water), 3-piperidinemethyl 2-(ρ-isobutylphenyl) propionate.AcOH (P-5, in water), diethylaminoethyl 1-(p-chlorobenzoyl)-5-methoxy-2-methylindole 3-acetate.AcOH (P-11, in water), 2-(4-morpholinyl)ethyl (Z)-5-fluoro-2-methyl-1-[(4-methylsulfinyl) phenylmethylene]-1H-indene-3-acetate.AcOH (P-12, in water), diethylaminoethyl

[2] = Plasma levels after transdermal administration to hairless mice; type: in vivo; settings: mouse, in vivo
Description: Tested compounds (20% solution or suspension in 1 mL isopropanol) are administered transdermally to the skin of intact hairless mice. The plasma levels of the parent compounds are determined by HPLC.

mice = test: Analgesic activity, acetic acid writhing; type: in vivo
Description: The prodrug compounds are administered either transdermally or orally. The parent compounds are administered orally. The number of writhing that occurred when mice are administered the acetic acid solution are counted, and the rate of inhibition based on the control group which was not pretreated with any test compounds is calculated. […] The A group is the control group.

[3] = test system: Human colon cancer cells (LS174J); test: Human colon cancer xenograft in nude mice, topical; settings: day 30, about 30 μl of 5% solution (1.5 mg) topically applied
Source text: Human colon cancer cells (LS174J, 2-3 mm^3 of tumor tissue was used in each mouse) are subcutaneously xenografted into the front leg of nude mice (BALB).

Chinese white rabbits = test: Malassezia-induced lesions similar to psoriasis; type: in vivo, rabbit; settings: 5% aqueous solution twice per day, 10 days after application
Source text: Heavy suspensions of Malassezia [Rosenberg, E. W., et al., Mycopathologia, 72, 147-154 (1980)] were applied to the shaved skin on the backs of the Chinese white rabbits (n=4×6) twice (at 7 am and 7 pm) per day for 2 weeks, lesions similar to psoriasis resulted.

[4] = 50 mg/kg transdermally, 60 minutes before acetic acid
[5] = 100 mg/kg transdermally, 30 min before acetic acid
[6] = 100 mg/kg transdermally, 60 minutes before acetic acid
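For LD50 of HPP in this document: acute toxicity in rats expressed as LD50, determined for both prodrugs and their parent compounds.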

| Molecule | In vitro penetration rate (apparent flux), prodrug compounds (human skin tissue) | Tumor size [1] | LD50 of HPP (rat; rats) | Peak plasma concentration of parent compound after prodrug compound [2] | Tumor size [3] | body temperature, t = 0 min (rats; 100 mg/kg transdermally) | body temperature, t = 90 min (rats; 100 mg/kg transdermally) | body temperature, t = 180 min (rats; 100 mg/kg transdermally) | body temperature, t = 270 min (rats; 100 mg/kg transdermally) | t, time to peak plasma level of parent compound after prodrug compound [2] | % (rate of writhing inhibition) (mice; [5]) | No. of Writhing (mice; [5]) | further results |
| --- | --- | --- | --- | --- | --- | --- | --- | --- | --- | --- | --- | --- | --- |
| CN(C)CCCC(=O)OC1=C(C(=O)Nc2ccccn2)N(C)S(=O)(=O)c2ccccc21.Cl [4-N,N-dimethylaminobutyryloxy-2-methyl-N-2-pyridinyl-2H,1,2-benzothiazine-3-carboxamide 1,1-dioxide.HCl] | 1700 μg/cm^2/h | 390 ± 50 mm^3 | 550 mg/kg | 20 mg/L | – | – | – | – | – | – | – | – | body temperature, t = 0 min (rats; 25 mg/kg transdermally): 37.57 ± 0.06; body temperature, t = 90 min (rats; 25 mg/kg transdermally): 36.51 ± 0.05; body temperature, t = 180 min (rats; 25 mg/kg transdermally): 36.40 ± 0.06; body temperature, t = 270 min (rats; 25 mg/kg transdermally): 36.45 ± 0.07; % (rate of writhing inhibition) (mice; [4]): 55%; No. of Writhing (mice; [4]): 15.6 |
| CC(=O)O.O=C(Cc1ccccc1Nc1c(Cl)cccc1Cl)OCCCN1CCCCC1 [P-2, 1-piperidinepropyl 2[(2,6-dichlorophenyl)amino]benzene acetate.AcOH] | – | 180 ± 50 mm^3 | – | – | 480 ± 180 mm^3 | – | – | – | – | – | – | – | Mouse weight ([1]; control 22 ± 2): 22 ± 2 g; Mouse weight [3]: 22 ± 2 g |
| CC(=O)O.CC(C(=O)OCCCN1CCCC1)c1cccc(C(=O)c2ccccc2)c1 (stereo not shown) [P-3, 1-pyrrolidinepropyl 2-(3-benzoylphenyl) propionate.AcOH] | – | 200 ± 50 mm^3 | – | – | 500 ± 150 mm^3 | – | – | – | – | – | – | – | – |
| CC(=O)O.CC(C(=O)OCC1CCNCC1)c1cccc(Oc2ccccc2)c1 (stereo not shown) [P-4, 4-piperidinemethyl 2-(3-phenoxyphenyl)propionate.AcOH] | – | 180 ± 50 mm^3 | – | – | 480 ± 120 mm^3 | – | – | – | – | – | – | – | – |
| CC(=O)O.Nc1c(CC(=O)OCCN2CCOCC2)cccc1C(=O)c1ccccc1 [P-16, 2-(4-morpholinyl)ethyl 2-amino-3-benzoylbenzeneacetate.AcOH] | – | – | – | – | 550 ± 150 mm^3 | – | – | – | – | – | – | – | – |
| CC(=O)O.CCc1cccc2c3c([nH]c12)C(CC)(CC(=O)OCCN(CC)CC)OCC3 (stereo not shown) [diethylaminoethyl 1,8-diethyl-1,3,4,9-tetrahydropyrano-[3,4-b]indole-1-acetate.AcOH] | 1300 μg/cm^2/h | – | 600 mg/kg | 20 mg/L | – | 37.23 ± 0.06 | 36.65 ± 0.06 | 36.58 ± 0.08 | 36.60 ± 0.07 | 50 min | 60% | 14.0 | lesions similar to psoriasis (Chinese white rabbits): the lesions were resolved |
| CC(=O)O.CCN(CC)CCOC(=O)COC(=O)Cc1c(C)n(C(=O)c2ccc(Cl)cc2)c2ccc(OC)cc12 [diethylaminoethyl 1-(4-chlorobenzoyl-5-methoxy-2-methyl-1H-indole-3-acetoxyacetate.AcOH] | 1200 μg/cm^2/h | – | – | 20 mg/L | – | 37.21 ± 0.06 | 36.75 ± 0.05 | 36.62 ± 0.08 | 36.58 ± 0.07 | 50 min | 55% | 15.6 | lesions similar to psoriasis (Chinese white rabbits): the lesions were resolved; LD50 of HPP (rat; rat, in vivo): 1200 mg/kg |
| CC(=O)O.CCN(CC)CCOC(=O)Cc1ccccc1Oc1ccc(Cl)cc1Cl [diethylaminoethyl 2-(2,4-dichlorophenoxy)benzeneacetate.AcOH] | 1500 μg/cm^2/h | 280 ± 50 mm^3 | 200 mg/kg | 20 mg/L | – | 37.22 ± 0.06 | 36.65 ± 0.06 | 36.58 ± 0.08 | 36.56 ± 0.07 | 50 min | 59% | 14.2 | – |
| CC(=O)O.CCN(CC)CCOC(=O)C(C)c1ccc2c(c1)C(=O)Cc1cc(C)ccc1O2 (stereo not shown) [diethylaminoethyl 2-(8-methyl-10, 11-dihydro-11-oxodibenz(b,f)oxepin-2-yl)propionate.AcOH] | 4100 μg/cm^2/h | 250 ± 50 mm^3 | – | 2000 mg/L | – | 37.26 ± 0.07 | 36.80 ± 0.06 | 36.70 ± 0.05 | 36.57 ± 0.08 | 50 min | 61% | 13.8 | – |
| CC(=O)O.CCN(CC)CCOC(=O)C(C)c1ccc2c(c1)CC(=O)c1ccccc1S2 (stereo not shown) [diethylaminoethyl 2-(10, 11-dihydro-10-oxodibenzo(b,f)thiepin-2-yl)propionate.AcOH] | 3700 μg/cm^2/h | – | – | 2000 mg/L | 480 ± 180 mm^3 | 37.25 ± 0.06 | 36.71 ± 0.05 | 36.65 ± 0.08 | 36.64 ± 0.07 | 50 min | 59% | 14.2 | – |
| CC(=O)O.CCN(CC)CCOC(=O)c1ccccc1Nc1cccc(C)c1C [diethylaminoethyl 2-[(2,3-dimethylphenyl)amino]benzoate.AcOH] | 2100 μg/cm^2/h | – | 900 mg/kg | 20 mg/L | 650 ± 250 mm^3 | 37.35 ± 0.06 | 36.71 ± 0.05 | 36.60 ± 0.08 | 36.59 ± 0.07 | 50 min | – | – | % (rate of writhing inhibition) (mice; [6]): 55%; No. of Writhing (mice; [6]): 15.6 |
| CC(=O)O.CCN(CC)CCOC(=O)c1ccccc1Nc1c(Cl)ccc(C)c1Cl [diethylaminoethyl 2-[(2,6-dichloro-3-methylphenyl)amino]benzoate.AcOH] | 2000 μg/cm^2/h | – | 1000 mg/kg | 20 mg/L | 490 ± 150 mm^3 | 37.28 ± 0.06 | 36.68 ± 0.05 | 36.62 ± 0.08 | 36.58 ± 0.07 | 50 min | – | – | % (rate of writhing inhibition) (mice; [6]): 59%; No. of Writhing (mice; [6]): 14.2 |
| CC(=O)O.CCN(CC)CCOC(=O)Cc1cn(-c2ccccc2)nc1-c1ccc(Cl)cc1 [diethylaminoethyl 3-(4-chlorophenyl)-1-phenyl-1H-pyrazole-4-acetate.AcOH] | – | – | 1200 mg/kg | 20 mg/L | – | 37.22 ± 0.07 | 36.82 ± 0.06 | 36.80 ± 0.05 | 36.77 ± 0.08 | 50 min | 57% | 15.2 | lesions similar to psoriasis (Chinese white rabbits): the lesions were resolved |
| N-(2-thiazolyl)-4-N,N-dimethylaminobutyryloxy-2-methyl-2H,1,2-benzothiazine-3-carboxamide 1,1-dioxide.HCl | 1500 μg/cm^2/h | – | 670 mg/kg | 20 mg/L | 690 ± 250 mm^3 | – | – | – | – | 50 min | – | – | body temperature, t = 0 min (rats; 25 mg/kg transdermally): 37.50 ± 0.07; body temperature, t = 90 min (rats; 25 mg/kg transdermally): 36.61 ± 0.04; body temperature, t = 180 min (rats; 25 mg/kg transdermally): 36.50 ± 0.07; body temperature, t = 270 min (rats; 25 mg/kg transdermally): 36.60 ± 0.05; % (rate of writhing inhibition) (mice; [4]): 55%; No. of Writhing (mice; [4]): 15.7 |
